The source of these data is patent publication US20110294741A1, “USE OF COMPOUNDS IN THE TREATMENT OF TAU-INDUCED CYTOTOXICITIES” (Bioalvo-Servicos, Investigacao e Desenvolvimento em …, priority 2008, published 2011).

The data set in a line: Partition of peptide into lipid bilayer vesicles (fluorescence titration). Type of data set: physicochemical. The text has this:
Vesicles of zwiterionic lipid, POPC ([…]), and POPC with negative lipid, POPG in different proportions: 80:20 ▪, 50:50 and 30:70 ? until 100% POPG ( ? ). The unit of 1/1 w on the y axis is the ratio between fluorescence intensities.
Vesicles of zwiterionic lipid, POPC, and POPC with negative lipid, POPG, in the proportion 50 POPC: 50 POPG.
As can be observed, the fluorescence intensity of the phenolic moiety increases due to the insertion in the apolar environment created by the lipids. Negative lipids (other symbols) inhibit the interaction due to charge repulsion. […] KTP-NH2 is therefore suitable for i.v. or i.p. administration. KTP-NH2 diffuses through the blood stream, reaches the BBB, and translocates.
In order to confirm that these plasma-stable KTP-NH2 derivatives maintained their lipophilicity, their potential interaction with human cell membranes was assessed. Again, we performed biophysical studies using fluorescent methodologies (Santos N. C., Prieto M. and Castanho M. A. 2003. Quantifying molecular partition into model systems of biomembranes: an emphasis on optical spectroscopic methods. Biochim Biophys Acta 1612: 123-135.).

As for `N=C(N)NCCCC(NC(=O)C(N)Cc1ccc(O)cc1)C(N)=O` [KTP-NH2, L-Tyr-L-Arg-NH2], the “partition coefficient for POPC, compared with KTP-OH” value (POPC membranes, KTP-OH value from Lopes et al 2006) is reported as “significantly superior to the one of KTP-OH”. For the same compound, the “local concentration in the model membrane of mammals versus surrounding bulk aqueous phase” value (POPC vesicles, numerical treatment of fluorescence titration data) is given as “approx. 2,500 fold”.
